In ChEMBL document CHEMBL1124295, “Synthesis and oral antiallergic activity of carboxylic acids derived from imidazo[2,1-c][1,4]benzoxazines, imidazo[1,2-a]quinolines, imidazo[1,2-a]quinoxalines, imidazo[1,2-a]quinoxalinones, pyrrolo[1,2-a]quinoxalinones, pyrrolo[2,3-a]quinoxalinones, and imidazo[2,1-b]benzothiazoles” (1988):
Activity calls are given as the source filed them. No cut-off for these calls is given here.

Assays:
Rattus norvegicus [1] = experiment: Inhibition of the IgE-mediated passive cutaneous anaphylaxis (PCA) reaction in rat after intravenous administration; NA means inactive at 1 and 10 mg/Kg; assay type: functional, organism-based
Rattus norvegicus [2] = experiment: Inhibition of the IgE-mediated passive cutaneous anaphylaxis (PCA) reaction in rat after intravenous administration; Range 1.14-3.89; assay type: functional
Rattus norvegicus [3] = experiment: Inhibition of the IgE-mediated passive cutaneous anaphylaxis (PCA) reaction in rat after oral administration; Range 0.026-0.31; assay type: functional
Rattus norvegicus [4] = experiment: Inhibition of the IgE-mediated passive cutaneous anaphylaxis (PCA) reaction in rat after intravenous administration; Inactive at 1 and 10 mg/kg; assay type: functional, organism-based; design: dose 10 mg/kg
Rattus norvegicus [5] = experiment: Inhibition of the IgE-mediated passive cutaneous anaphylaxis (PCA) reaction in rat after intravenous administration; Inactive; assay type: functional, organism-based
Rattus norvegicus [6] = experiment: Inhibition of the IgE-mediated passive cutaneous anaphylaxis (PCA) reaction in rat after intravenous administration; Range 0.02-0.38; assay type: functional
Rattus norvegicus [7] = experiment: Inhibition of the IgE-mediated passive cutaneous anaphylaxis (PCA) reaction in rat after oral administration; Inactive at 1 and 10 mg/kg; assay type: functional, organism-based; design: dose 10 mg/kg
Rattus norvegicus [8] = experiment: Inhibition of the IgE-mediated passive cutaneous anaphylaxis (PCA) reaction in rat after intravenous administration; Range 0.20-0.35; assay type: functional
Rattus norvegicus [9] = experiment: Inhibition of the IgE-mediated passive cutaneous anaphylaxis (PCA) reaction in rat after intravenous administration; Range 0.057-0.091; assay type: functional
Rattus norvegicus [10] = experiment: Inhibition of the IgE-mediated passive cutaneous anaphylaxis (PCA) reaction in rat after oral administration; Range 0.54-0.9; assay type: functional
Rattus norvegicus [11] = experiment: Inhibition of the IgE-mediated passive cutaneous anaphylaxis (PCA) reaction in rat after intravenous administration; Range 0.91-3.86; assay type: functional
Rattus norvegicus [12] = experiment: Inhibition of the IgE-mediated passive cutaneous anaphylaxis (PCA) reaction in rat after oral administration; Range 4.38-21.4; assay type: functional
Rattus norvegicus [13] = experiment: Inhibition of the IgE-mediated passive cutaneous anaphylaxis (PCA) reaction in rat after intravenous administration; Range 0.023-0.11; assay type: functional
Rattus norvegicus [14] = experiment: Inhibition of the IgE-mediated passive cutaneous anaphylaxis (PCA) reaction in rat after oral administration; NA means inactive at 1 and 10 mg/Kg; assay type: functional, organism-based
Rattus norvegicus [15] = experiment: Inhibition of the IgE-mediated passive cutaneous anaphylaxis (PCA) reaction in rat after oral administration; Inactive; assay type: functional, organism-based
Rattus norvegicus [16] = experiment: Inhibition of the IgE-mediated passive cutaneous anaphylaxis (PCA) reaction in rat after intravenous administration; Range 0.058-0.15; assay type: functional
Rattus norvegicus [17] = experiment: Inhibition of the IgE-mediated passive cutaneous anaphylaxis (PCA) reaction in rat after intravenous administration; NA means inactive; assay type: functional, organism-based
Rattus norvegicus [18] = experiment: Inhibition of the IgE-mediated passive cutaneous anaphylaxis (PCA) reaction in rat after intravenous administration; Range 0.04-0.154; assay type: functional
Rattus norvegicus [19] = experiment: Inhibition of the IgE-mediated passive cutaneous anaphylaxis (PCA) reaction in rat after oral administration; Inactive at 10 mg/kg; assay type: functional, organism-based; design: dose 10 mg/kg
Rattus norvegicus [20] = experiment: Inhibition of the IgE-mediated passive cutaneous anaphylaxis (PCA) reaction in rat after oral administration; NA means inactive 1 and 10 mg/kg; assay type: functional, organism-based; design: dose 10 mg/kg
Rattus norvegicus [21] = experiment: Inhibition of the IgE-mediated passive cutaneous anaphylaxis (PCA) reaction in rat after oral administration; Inactive(50% inhibition at 10 mg/kg); assay type: functional
Rattus norvegicus [22] = experiment: Inhibition of the IgE-mediated passive cutaneous anaphylaxis (PCA) reaction in rat after intravenous administration; Range 0.022-0.04; assay type: functional
Rattus norvegicus [23] = experiment: Inhibition of the IgE-mediated passive cutaneous anaphylaxis (PCA) reaction in rat after intravenous administration; Range 2.74-6.94; assay type: functional
Rattus norvegicus [24] = experiment: Inhibition of the IgE-mediated passive cutaneous anaphylaxis (PCA) reaction in rat after intravenous administration; Range 0.25-0.41; assay type: functional

## O=C(O)c1cn2ccc3ccccc3c2n1
Rattus norvegicus [1]
  ED50: inactive

## Cc1c(C(=O)O)nc2ccc3ccc(Cl)cc3n12
Rattus norvegicus [2]
  ED50: 1.99 mg/kg

## O=Cc1cn2c(ccc3ccccc32)n1
Rattus norvegicus [3]
  ED50: 0.093 mg/kg

## O=C(O)c1cc2c(ccc3ccccc32)s1
Rattus norvegicus [4]
  ED50: inactive

## CCn1c(=O)c2c(C(=O)OC)c(C(=O)O)cn2c2ccccc21
Rattus norvegicus [5]
  ED50: inactive

## OCc1cn2c(cc(Cl)c3ccc(Cl)cc32)n1
Rattus norvegicus [6]
  ED50: 0.16 mg/kg

## O=C(O)c1cn2c(cc(-c3ccccc3)c3cc(Cl)ccc32)n1
Rattus norvegicus [7]
  ED50: inactive

## COc1ccc2c(OC)cc3nc(C(=O)O)cn3c2c1
Rattus norvegicus [7]
  ED50: inactive

## CCc1nc(C(=O)O)c2c(O)nc3ccccc3n12
Rattus norvegicus [4]
  ED50: inactive

## COc1ccc2ccc3nc(C(=O)Nc4nn[nH]n4)cn3c2c1
Rattus norvegicus [4]
  ED50: inactive

## O=C(O)c1cn2c(ccc3cc([N+](=O)[O-])ccc32)n1
Rattus norvegicus [8]
  ED50: 0.28 mg/kg

## O=C(O)c1nc2n(c1C(=O)O)-c1ccccc1OC2
Rattus norvegicus [1]
  ED50: inactive

## O=C(O)c1cn2c(n1)c(-c1ccccc1)cc1ccccc12
Rattus norvegicus [4]
  ED50: inactive

## O=C(O)c1cn2c(cnc3ccccc32)n1 [DAZOQUINAST]
Rattus norvegicus [9]
  ED50: 0.073 mg/kg
Rattus norvegicus [10]
  ED50: 0.13 mg/kg

## CC1Oc2ccccc2-n2cc(C(=O)O)nc21 (stereo unspecified)
Rattus norvegicus [11]
  ED50: 1.76 mg/kg
Rattus norvegicus [12]
  ED50: 8.46 mg/kg

## CCOC(=O)c1cn2ccccc2n1
Rattus norvegicus [4]
  ED50: inactive

## COC(=O)c1nc2n(c1C(=O)O)-c1ccccc1OC2
Rattus norvegicus [1]
  ED50: inactive

## CSc1cc2nc(C(=O)O)cn2c2ccccc12
Rattus norvegicus [13]
  ED50: 0.046 mg/kg

## O=C(O)Cc1cn2c(n1)COc1ccccc1-2
Rattus norvegicus [1]
  ED50: inactive

## CCOC(=O)c1cn2c(cnc3cc(Cl)c(Cl)cc32)n1
Rattus norvegicus [14]
  ED50: inactive

## c1ccc2c(c1)OCc1nc(CN3CCCCC3)cn1-2
Rattus norvegicus [1]
  ED50: inactive

## CCOC(=O)c1cn2c3ccccc3c(=O)n(CC)c2n1
Rattus norvegicus [15]
  ED50: inactive

## NC(=O)c1cn2c(ccc3ccccc32)n1
Rattus norvegicus [14]
  ED50: inactive

## O=C(O)c1cn2c(n1)c(CO)cc1ccccc12
Rattus norvegicus [4]
  ED50: inactive

## COC(=O)c1nc2n(c1CO)-c1ccccc1OC2
Rattus norvegicus [14]
  ED50: inactive

## CSc1ccc2ccc3nc(C(=O)O)cn3c2c1
Rattus norvegicus [16]
  ED50: 0.095 mg/kg

## C[S+](=N)([O-])c1ccc2ccc3nc(C(=O)O)cn3c2c1 (stereo unspecified)
Rattus norvegicus [16]
  ED50: 0.095 mg/kg

## O=C(O)c1nc2n(c1CO)-c1ccccc1OC2
Rattus norvegicus [14]
  ED50: inactive

## O=C(O)c1cnc2n1-c1ccccc1OC2
Rattus norvegicus [1]
  ED50: inactive

## CCn1c(=O)c2ccccc2n2cc(C(=O)O)nc12
Rattus norvegicus [17]
  ED50: inactive

## O=C(O)c1cc2ccc3ccccc3n2c1
Rattus norvegicus [4]
  ED50: inactive

## O=C(O)c1cn2c(ccc3ccc(C(F)(F)F)cc32)n1
Rattus norvegicus [18]
  ED50: 0.07 mg/kg

## O=C(O)c1cn2c(n1)c(O)nc1cc(Cl)c(Cl)cc12
Rattus norvegicus [19]
  ED50: inactive

## CCOC(=O)c1cn2c(n1)c(=O)n(Cc1ccccc1)c1ccccc12
Rattus norvegicus [19]
  ED50: inactive

## c1ccc2c(c1)OCc1nc(-c3nn[nH]n3)cn1-2
Rattus norvegicus [14]
  ED50: inactive

## N#Cc1cn2c(n1)COc1ccccc1-2
Rattus norvegicus [20]
  ED50: inactive

## COC(=O)c1nnn2c1c(=O)oc1ccccc12
Rattus norvegicus [21]
  inhibition in vivo at 10 mg/kg: 50%

## O=C(Cc1cn2c(n1)COc1ccccc1-2)Nc1nn[nH]n1
Rattus norvegicus [1]
  ED50: inactive

## COc1ccc2ccc3nc(C(N)=O)cn3c2c1
Rattus norvegicus [7]
  ED50: inactive

## CCOC(=O)c1c(C(=O)OC)nc2n1-c1ccccc1OC2
Rattus norvegicus [1]
  ED50: inactive

## O=C(O)c1cn2c(cc(-c3ccccc3)c3ccccc32)n1
Rattus norvegicus [7]
  ED50: inactive

## O=C(O)c1nc2n(c1C(=O)N1CCOCC1)-c1ccccc1OC2
Rattus norvegicus [1]
  ED50: inactive

## CCOC(=O)c1cn2c(n1)c(C#N)cc1ccccc12
Rattus norvegicus [14]
  ED50: inactive

## O=C(O)c1nc(Cc2ccccc2)n2c1c(O)nc1ccccc12
Rattus norvegicus [7]
  ED50: inactive

## CCn1c(=O)c2cc(C(=O)O)cn2c2cc(C)c(C)cc21
Rattus norvegicus [22]
  ED50: 0.03 mg/kg

## O=C(O)c1nc2ccc3ccccc3n2c1Br
Rattus norvegicus [23]
  ED50: 4.19 mg/kg

## COc1ccc2c(OC(C)C)cc3nc(C(=O)O)cn3c2c1
Rattus norvegicus [21]
  inhibition in vivo at 10 mg/kg: 50%

## Cc1c(C(=O)O)nc2cc(Cl)c3ccccc3n12
Rattus norvegicus [7]
  ED50: inactive

## CCn1c(=O)c2nc(C(=O)Nc3nn[nH]n3)cn2c2ccccc21
Rattus norvegicus [24]
  ED50: 0.32 mg/kg
